Target: human factor D (Homo sapiens (Human), UniProt P00746)
Assay: biochemical
Type: biochemical
Settings: Factor D inhibition data using Method 1; recombinant human factor D 10 nM, substrate Z-Lys-thiobenzyl, fluorescence; read-out: IC50
Procedure, shortened: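 E. coli-expressed recombinant human factor D (10 nM) was preincubated with compound for 1 h at room temperature in 0.1 M Hepes pH 7.5, 1 mM MgCl2, 1 M NaCl, 0.05% CHAPS. Fluorescence (ex 485/em 535 nm) was read after adding Z-Lys-thiobenzyl (200 μM) and 2,4-dinitrobenzenesulfonyl-fluoresceine (25 μM); IC50 came from percent inhibition versus concentration.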

human factor D, sequence (P00746 26-253): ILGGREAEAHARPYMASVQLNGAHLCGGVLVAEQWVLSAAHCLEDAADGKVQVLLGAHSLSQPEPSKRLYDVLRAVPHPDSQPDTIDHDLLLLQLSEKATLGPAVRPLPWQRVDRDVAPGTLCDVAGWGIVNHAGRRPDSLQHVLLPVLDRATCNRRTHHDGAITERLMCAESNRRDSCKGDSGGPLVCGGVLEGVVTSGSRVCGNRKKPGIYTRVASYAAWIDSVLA

Point of comparison: `C[C@@H](NC(=O)[C@@H]1C[C@H]2C[C@H]2N1C(=O)Nc1cn(C(N)=O)c2ccccc12)C1CCCCC1` [Example 28, (1R,3S,5R)-2-Aza-bicyclo[3.1.0]hexane-2,3-dicarboxylic acid 2-[(1-carbamoyl-1H-indol-3-yl)-amide] 3-[((R)-1-cyclohexyl-ethyl)-amide]], IC50 78 nM. Against it:
- NC(=O)c1nn(CC(=O)N2[C@@H]3C[C@@H]3C[C@H]2C(=O)NC[C@H]2CC2(Cl)Cl)c2ccc(OCc3ncccn3)cc12 [Example 110, 1-(2-{(1R,3S,5R)-3-[((R)-2,2-Dichloro-cyclopropylmethyl)-carbamoyl]-2-aza-bicyclo [3.1.0]hex-2-yl}-2-oxo-ethyl)-5-(pyrimidin-2-ylmethoxy)-1H-indazole-3-carboxylic acid amide] — 1.9-fold lower, 41 nM
- CC(=O)c1nn(CC(=O)N2[C@@H]3C[C@@H]3C[C@H]2C(=O)N[C@H](C)C2CCCCC2)c2cnccc12 [Example 6, (1R,3S,5R)-2-[2-(3-Acetyl-pyrazolo[3,4-c]pyridin-1-yl)-acetyl]-2-aza-bicyclo[3.1.0] hexane-3-carboxylic acid ((R)-1-cyclohexyl-ethyl)-amide] — within 1.5-fold, 71 nM
- CC1CCCC(CNC(=O)[C@@H]2C[C@H]3C[C@H]3N2C(=O)Cn2nc(C(N)=O)c3ccncc32)C1 (single isomer, unassigned; dia 4) [Example 118] — 2-fold higher, 159 nM
- CC(=O)c1nn(CC(=O)N2[C@@H]3C[C@@H]3C[C@H]2C(=O)N[C@H](C)[C@H]2CC2(Cl)Cl)c2ccc(OCc3ccn(C)n3)cc12 [Example 66, (1R,3S,5R)-2-{2-[3-Acetyl-5-(1-methyl-1H-pyrazol-3-ylmethoxy)-indazol-1-yl]-acetyl}-2-aza-bicyclo[3.1.0]hexane-3-carboxylic acid [(R)-1-((R)-2,2-dichloro-cyclopropyl)-ethyl]-amide] — 20-fold lower, 4 nM
- NC(=O)c1nn(CC(=O)N2[C@@H]3C[C@@H]3C[C@H]2C(=O)NC[C@H]2CC2(Cl)Cl)c2ccc(F)cc12 [Example 98, 1-(2-{(1R,3S,5R)-3-[((R)-2,2-Dichloro-cyclopropylmethyl)-carbamoyl]-2-aza-bicyclo[3.1.0]hex-2-yl}-2-oxo-ethyl)-5-fluoro-1H-indazole-3-carboxylic acid amide] — 3.2-fold higher, 248 nM
- C[C@@H](NC(=O)[C@@H]1C[C@H]2C[C@H]2N1C(=O)Cn1nc(C(N)=O)c2ccncc21)C1CCCCC1 [Example 55, 1-{2-[(1R,3S,5R)-3-((R)-1-Cyclohexyl-ethylcarbamoyl)-2-aza-bicyclo[3.1.0]hex-2-yl]-2-oxo-ethyl}-1H-pyrazolo[3,4-c]pyridine-3-carboxylic acid amide] — 2-fold higher, 158 nM
- CC(=O)c1nn(CC(=O)N2[C@@H]3C[C@@H]3C[C@H]2C(=O)NCC2CC2(Cl)Cl)c2ncccc12 (stereo partly drawn) [Example 11, (1R,3S,5R)-2-[2-(3-Acetyl-pyrazolo[3,4-b]pyridin-1-yl)-acetyl]-2-aza-bicyclo[3.1.0] hexane-3-carboxylic acid (2,2-dichloro-cyclopropylmethyl)-amide] — 2.1-fold higher, 163 nM
- CC(=O)c1nn(CC(=O)N2[C@@H]3C[C@@H]3C[C@H]2C(=O)N[C@H](C)[C@H]2CC2(Cl)Cl)c2ccc(OCc3ncn(C)n3)cc12 [Example 61, (1R,3S,5R)-2-{2-[3-Acetyl-5-(1-methyl-1H-[1,2,4]triazol-3-ylmethoxy)-indazol-1-yl]-acetyl}-2-aza-bicyclo[3.1.0]hexane-3-carboxylic acid [(R)-1-((R)-2,2-dichloro-cyclopropyl)-ethyl]-amide] — 26-fold lower, 3 nM
- CCC1(CC)CC1CNC(=O)[C@@H]1C[C@H]2C[C@H]2N1C(=O)Cn1nc(C(C)=O)c2cccnc21 (stereo partly drawn) [Example 10, (1R,3S,5R)-2-[2-(3-Acetyl-pyrazolo[3,4-b]pyridin-1-yl)-acetyl]-2-aza-bicyclo[3.1.0] hexane-3-carboxylic acid (2,2-diethyl-cyclopropylmethyl)-amide] — 18-fold higher, 1420 nM
- CC(=O)c1nn(CC(=O)N2[C@@H]3C[C@@H]3C[C@H]2C(=O)N[C@H](C)[C@H]2CC2(Cl)Cl)c2ccccc12 [Example 46, (1R,3S,5R)-2-[2-(3-Acetyl-indazol-1-yl)-acetyl]-2-aza-bicyclo[3.1.0]hexane-3-carboxylic acid [(R)-1-((R)-2,2-dichloro-cyclopropyl)-ethyl]-amide] — 6.5-fold lower, 12 nM
- CC(=O)c1nn(CC(=O)N2[C@@H]3C[C@@H]3C[C@H]2C(=O)NCC2CC2)c2ncccc12 [Example 1, (1R,3S,5R)-2-[2-(3-Acetyl-pyrazolo[3,4-b]pyridin-1-yl)-acetyl]-2-aza-bicyclo[3.1.0]hexane-3-carboxylic acid cyclopropylmethyl-amide] — 61-fold higher, 4790 nM
- CC(=O)c1nn(CC(=O)N2[C@@H]3C[C@@H]3C[C@H]2C(=O)NCC2CCCC2(C)C)c2cnccc12 (single isomer, unassigned; dia 2) [Example 20] — 3-fold higher, 233 nM
- CC(=O)c1nn(CC(=O)N2[C@@H]3C[C@@H]3C[C@H]2C(=O)NC[C@H]2CC2(Cl)Cl)c2ccc(OCc3nccs3)cc12 [Example 106, (1R,3S,5R)-2-{2-[3-Acetyl-5-(thiazol-2-ylmethoxy)-indazol-1-yl]-acetyl}-2-aza-bicyclo[3.1.0]hexane-3-carboxylic acid ((R)-2,2-dichloro-cyclopropylmethyl)-amide] — 16-fold lower, 5 nM

Same assay, conditions: IC50, Factor D inhibition data using Method 1; recombinant human factor D 10 nM, substrate Z-Lys-thiobenzyl, fluorescence

Point of comparison: `CC1C(CNC(=O)[C@@H]2C[C@H]3C[C@H]3N2C(=O)Cn2nc(C(N)=O)c3ccccc32)C1(Cl)Cl` (single isomer, unassigned; dia 1) [Example 73, 1-(2-{(1R,3S,5R)-3-[((1R,3R) or (1S,3S)-2,2-Dichloro-3-methyl-cyclopropylmethyl)-carbamoyl]-2-aza-bicyclo[3.1.0]hex-2-yl}-2-oxo-ethyl)-1H-indazole-3-carboxylic acid amide-Dia 1], IC50 100 nM. Against it:
- CC(=O)c1nn(CC(=O)N2[C@@H]3C[C@@H]3C[C@H]2C(=O)NCC2C(C)C2(Cl)Cl)c2ccc(OCc3ncccn3)cc12 (single isomer, unassigned; dia 2) [Example 76, (1R,3S,5R)-2-{2-[3-Acetyl-5-(pyrimidin-2-ylmethoxy)-indazol-1-yl]-acetyl}-2-aza-bicyclo[3.1.0] hexane-3-carboxylic acid ((1R,3R) or (1S,3S)-2,2-dichloro-3-methyl-cyclopropylmethyl)-amide-Dia 2] — 33-fold lower, 3 nM
- CC(=O)c1nn(CC(=O)N2[C@@H]3C[C@@H]3C[C@H]2C(=O)N[C@H](C)[C@H]2CC2(Cl)Cl)c2ccc(OCc3ncccn3)cc12 [Example 32, (1R,3S,5R)-2-{2-[3-Acetyl-5-(pyrimidin-2-ylmethoxy)-indazol-1-yl]-acetyl}-2-aza-bicyclo[3.1.0]hexane-3-carboxylic acid [(R)-1-((R)-2,2-dichloro-cyclopropyl)-ethyl]-amide-Dia 1] — 17-fold lower, 6 nM
- CC1CCC(CNC(=O)[C@@H]2C[C@H]3C[C@H]3N2C(=O)Cn2nc(C(N)=O)c3ccccc32)C1 (single isomer, unassigned; dia 1) [Example 89] — within 1.5-fold, 74 nM
- NC(=O)c1nn(CC(=O)N2[C@@H]3C[C@@H]3C[C@H]2C(=O)NC(CO)C2CC2(Cl)Cl)c2ccccc12 (single isomer, unassigned; dia 4) [Example 51] — 2.5-fold higher, 246 nM
